# From PubChem BioAssay AID1963422 (Molecular Pharmacology Branch, DTP, NCI, 2024)
# Test system: 463943-066-T-J2-PDC complex spheroid growth
# Assay: Anticancer human tumor 463943-066-T-J2-PDC patient-derived colon adenocarcinoma cell line growth inhibition [Asc]
# Settings: for IC50: curve of first compound; for viability, T/C: stronger effect = lower value
# Method in brief: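 Spheroid model: tumor line + HUVEC + hMSC. Single agents and combinations; top conc. at/near clinical Cmax (10 microM if undetermined), half-log dilutions. DMSO stocks at 800-fold test concentration.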
# [1] = second compound 0.00949 µM, first compound 0.0316 µM
# [2] = second compound 0.00949 µM, first compound 0.1 µM
# [3] = second compound 0.00949 µM, first compound 0.316 µM
# [4] = second compound 0.00949 µM, first compound 1 µM
# [5] = second compound 0.03 µM, first compound 0.0316 µM
# [6] = second compound 0.03 µM, first compound 0.1 µM
# [7] = second compound 0.03 µM, first compound 0.316 µM
# [8] = second compound 0.03 µM, first compound 1 µM
# [9] = second compound 0.0949 µM, first compound 0.0316 µM
# [10] = second compound 0.0949 µM, first compound 0.1 µM
# [11] = second compound 0.0949 µM, first compound 0.316 µM
# [12] = second compound 0.0949 µM, first compound 1 µM
# [13] = second compound 0.3 µM, first compound 0.0316 µM
# [14] = second compound 0.3 µM, first compound 0.1 µM
# [15] = second compound 0.3 µM, first compound 0.316 µM
# [16] = second compound 0.3 µM, first compound 1 µM
# [17] = second compound 0.949 µM, first compound 0.0316 µM
# [18] = second compound 0.949 µM, first compound 0.1 µM
# [19] = second compound 0.949 µM, first compound 0.316 µM
# [20] = second compound 0.949 µM, first compound 1 µM
# [21] = second compound 3 µM, first compound 0.0316 µM
# [22] = second compound 3 µM, first compound 0.1 µM
# [23] = second compound 3 µM, first compound 0.316 µM
# [24] = second compound 3 µM, first compound 1 µM
# 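Also: compound exposure lasted 7 days.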
# 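For viability, T/C in this document: 100% = DMSO vehicle control wells.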
smiles,measurement,setting,value
C#Cc1c(F)ccc2cc(O)cc(-c3ncc4c(N5CC6CCC(C5)N6)nc(OCC56CCCN5CC(F)C6)nc4c3F)c12 (centres undefined) + CCN1C(C(=O)NC23CCC(C(=O)O)(CC2)CC3)C(c2cccc(Cl)c2F)C2(C(=O)Nc3cc(Cl)ccc32)C12CCCCC2,IC50,second compound 0.00949 µM,> 10 µM
same,IC50,second compound 0.03 µM,> 10 µM
same,IC50,second compound 0.0949 µM,> 10 µM
same,IC50,second compound 0.3 µM,> 10 µM
same,IC50,second compound 0.949 µM,> 10 µM
same,IC50,second compound 3 µM,> 10 µM
same,"viability, T/C",[1],94.4%
same,"viability, T/C",[2],99.3%
same,"viability, T/C",[3],94.3%
same,"viability, T/C",[4],101%
same,"viability, T/C","second compound 0.00949 µM, first compound 3.16 µM",108%
same,"viability, T/C","second compound 0.00949 µM, first compound 10 µM",88.3%
same,"viability, T/C",[5],102%
same,"viability, T/C",[6],90.5%
same,"viability, T/C",[7],94.1%
same,"viability, T/C",[8],101%
same,"viability, T/C","second compound 0.03 µM, first compound 3.16 µM",103%
same,"viability, T/C","second compound 0.03 µM, first compound 10 µM",82.5%
same,"viability, T/C",[9],91.5%
same,"viability, T/C",[10],88.8%
same,"viability, T/C",[11],94.2%
same,"viability, T/C",[12],93%
same,"viability, T/C","second compound 0.0949 µM, first compound 3.16 µM",91.7%
same,"viability, T/C","second compound 0.0949 µM, first compound 10 µM",94.1%
same,"viability, T/C",[13],88.4%
same,"viability, T/C",[14],81.6%
same,"viability, T/C",[15],87%
same,"viability, T/C",[16],83%
same,"viability, T/C","second compound 0.3 µM, first compound 3.16 µM",83.1%
same,"viability, T/C","second compound 0.3 µM, first compound 10 µM",85.4%
same,"viability, T/C",[17],74%
same,"viability, T/C",[18],73%
same,"viability, T/C",[19],78.8%
same,"viability, T/C",[20],77.9%
same,"viability, T/C","second compound 0.949 µM, first compound 3.16 µM",75.3%
same,"viability, T/C","second compound 0.949 µM, first compound 10 µM",71.2%
same,"viability, T/C",[21],70%
same,"viability, T/C",[22],71.8%
same,"viability, T/C",[23],70.5%
same,"viability, T/C",[24],73.3%
same,"viability, T/C","second compound 3 µM, first compound 3.16 µM",72.1%
same,"viability, T/C","second compound 3 µM, first compound 10 µM",67.6%
CNC(C)C(=O)NC1CN(S(=O)(=O)c2cccc(S(=O)(=O)N3CCC4CCC(C(=O)NC(c5ccccc5)c5ccccc5)N4C(=O)C(NC(=O)C(C)NC)C3)c2)CCC2CCC(C(=O)NC(c3ccccc3)c3ccccc3)N2C1=O (centres undefined) + CCN1C(C(=O)NC23CCC(C(=O)O)(CC2)CC3)C(c2cccc(Cl)c2F)C2(C(=O)Nc3cc(Cl)ccc32)C12CCCCC2,IC50,second compound 0.00949 µM,> 1 µM
same,IC50,second compound 0.03 µM,> 1 µM
same,IC50,second compound 0.0949 µM,> 1 µM
same,IC50,second compound 0.3 µM,> 1 µM
same,IC50,second compound 0.949 µM,> 1 µM
same,IC50,second compound 3 µM,> 1 µM
same,"viability, T/C","second compound 0.00949 µM, first compound 0.00316 µM",96.9%
same,"viability, T/C","second compound 0.00949 µM, first compound 0.01 µM",93.3%
same,"viability, T/C",[1],99.3%
same,"viability, T/C",[2],93.7%
same,"viability, T/C",[3],95.9%
same,"viability, T/C",[4],86.8%
same,"viability, T/C","second compound 0.03 µM, first compound 0.00316 µM",103%
same,"viability, T/C","second compound 0.03 µM, first compound 0.01 µM",96.6%
same,"viability, T/C",[5],89.4%
same,"viability, T/C",[6],93.2%
same,"viability, T/C",[7],95%
same,"viability, T/C",[8],85%
same,"viability, T/C","second compound 0.0949 µM, first compound 0.00316 µM",94.2%
same,"viability, T/C","second compound 0.0949 µM, first compound 0.01 µM",93.2%
same,"viability, T/C",[9],81.9%
same,"viability, T/C",[10],89.3%
same,"viability, T/C",[11],91.8%
same,"viability, T/C",[12],86.1%
same,"viability, T/C","second compound 0.3 µM, first compound 0.00316 µM",83.8%
same,"viability, T/C","second compound 0.3 µM, first compound 0.01 µM",81.1%
same,"viability, T/C",[13],82.1%
same,"viability, T/C",[14],81.9%
same,"viability, T/C",[15],84.6%
same,"viability, T/C",[16],81%
same,"viability, T/C","second compound 0.949 µM, first compound 0.00316 µM",73.1%
same,"viability, T/C","second compound 0.949 µM, first compound 0.01 µM",85.1%
same,"viability, T/C",[17],76.1%
same,"viability, T/C",[18],75.8%
same,"viability, T/C",[19],76.8%
same,"viability, T/C",[20],71.5%
same,"viability, T/C","second compound 3 µM, first compound 0.00316 µM",71.1%
same,"viability, T/C","second compound 3 µM, first compound 0.01 µM",73.2%
same,"viability, T/C",[21],74.7%
same,"viability, T/C",[22],69.3%
same,"viability, T/C",[23],75.5%
same,"viability, T/C",[24],69.4%
